From article PMC9195046, “Filament organization of the bacterial actin MreB is dependent on the nucleotide state” (The Journal of Cell Biology, 2022)

Assays:
ScMreB5 [1] = target: T1, ScMreB5 (Spiroplasma citri, UniProt Q8VQG1); assay: X-ray crystal structure, […] Å; details: nucleotide-binding pocket; Mg2+ and K+ bound; 2 mM ADP, 2 mM MgCl2; ADP also co-purifies (HPLC)
T1 construct: gene mreB5; monomer about 38 kD, forms filaments
T1 sequence (Q8VQG1 1-352): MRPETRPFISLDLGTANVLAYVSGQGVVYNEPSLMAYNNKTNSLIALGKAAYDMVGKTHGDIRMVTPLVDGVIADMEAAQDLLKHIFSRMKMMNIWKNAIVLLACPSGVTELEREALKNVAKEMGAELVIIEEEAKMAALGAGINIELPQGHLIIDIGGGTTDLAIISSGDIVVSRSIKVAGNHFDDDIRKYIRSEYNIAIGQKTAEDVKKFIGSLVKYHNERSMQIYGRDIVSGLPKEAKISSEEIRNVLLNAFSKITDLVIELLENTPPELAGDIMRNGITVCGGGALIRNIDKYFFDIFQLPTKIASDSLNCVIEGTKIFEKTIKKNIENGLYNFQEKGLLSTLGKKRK

ScMreB5 [2] = target: T1, ScMreB5; assay: thermal shift (SYPRO Orange); assay type: binding; details: 2.6 µM protein, protein purified with ADP and MgCl2 added

| SMILES | X-ray crystal structure, 2.3 Å (ScMreB5 [1]) | Tm (ScMreB5 [2]; 1 mM ADP) | Tm (ScMreB5 [2]; 1 mM ATP) |
| --- | --- | --- | --- |
| Nc1ncnc2c1ncn2[C@@H]1O[C@H](COP(=O)(O)OP(=O)(O)O)[C@@H](O)[C@H]1O [ADP] | ScMreB5 also crystallized in the presence of ADP (PDB accession no. 7BVZ) | Thermal shift assays showed increased stability in the KCl buffer and upon addition of excess ADP | – |
| Nc1ncnc2c1ncn2[C@@H]1O[C@H](COP(=O)(O)OP(=O)(O)OP(=O)(O)O)[C@@H](O)[C@H]1O [ATP] | – | – | increased stability in the KCl buffer and upon addition of excess ADP or ATP |
